Measured values from patent publication US9115092B2, “Substituted quinazoline and pyrido-pyrimidine derivatives” (Asana Biosciences, LLC, priority 2010, dated 2015).
pIC50: −log10 of the molar value.

Assays:
[1] = test system: pAKT(5473) (phosphorylated at serine 473), PC3 cells; assay: In-cell Western assay, pAKT(5473) in PC3 cells; type: cell-based; settings: Homo sapiens, PC-3, In-cell Western, read-out: pAkt-S473
Outline: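 Overnight-seeded PC3 cells were treated 2 h with serially diluted compound, then fixed and immunostained with phospho-specific primary antibodies and Eu-labelled secondary. Time-resolved Eu signal read at 615 nm (ex 340 nm), normalised by Hoechst 33258 staining (ex 355/em 460 nm); IC50 from sigmoidal dose-response fit.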

pS6RP in PC3 tumor = assay: In vivo PK/PD study, PC3 tumor bearing mice, pS6RP; settings: Mus musculus
Experimental: PC3 cells were cultured at 37° C. in a 5% CO2 incubator using Hams F12 K medium. Ten million (10^7) cells were injected subcutaneously to the right flank region of athymic male mice (Harlan, age: 6-7 weeks, weight: about 20 g). Tumor bearing mice were randomized when the tumor volume reached about 250 mm^3 and three mice were used per each time point. Test compounds of formula (I) were formulated in 40% HPCD in 1×PBS, pH 7.4 and dosed orally at 50 mg/kg single dose (dose volume−10 mL/kg). Plasma and tumor samples were collected at 0 (vehicle control animals), 1, 4 and 24 hours post dosing. Blood was drawn (retro orbital) to a tube containing 0.2% EDTA for plasma collection. The tumor was excised from the mouse and immediately frozen in liquid nitrogen for PD analysis. Tumor and plasma drug concentrations were measured for PK analysis using LC-MS.
Snap frozen tumor samples were pulverized in a mortar (Belart) containing liquid nitrogen and tumor powder was stored at −80° C. until analysis. Pre coated ELISA kits (Cell Signaling Technology; pAKT(T308), CST#7135; pAKT(5473), CST#7134 and pS6RP, CST#7205) were used for PD analysis. Tumor powder was transferred to Eppendorf® tubes and lysis buffer (1 mL) was added to the powder. Protease and phosphatase inhibitors (SIGMA) and phenylmethanesulfonylfluoride (PMSF) were added to tumor powder and mixed by vortexing followed by sonication (15 sec). Samples were kept on an ice bath for 30 min. Supernatant was separated after centrifugation at 10,000 rpm for 20 min at 4° C. Supernatant was re-centrifuged and fresh supernatant was aliquoted to different tubes. Total protein was estimated using a BCA kit (Thermo Scientific) and 50 μg total protein was loaded to each well. ELISA analysis was carried out as per manufacturer's instructions. The detection for pAKT was based on chemiluminescence and pS6RP was based on absorbance. Qualitative assessments of the suppression of pAKT(T308), pAKT(5473), and pS6RP were also carried out by standard Western blot analyses.
For example, the compound of Example 1, at 50 mg/kg po, caused about 50% inhibition of pAkt(5473) at 1 and 4 hours and >50% inhibition of pS6RP at 1, 4 and 24 hours. Also, the compound of Example 2, at 50 mg/kg po, caused about 25-30% inhibition of pAkt(5473) at 4 and 24 hours and >50% inhibition of pS6RP at 1, 4 and 24 hours. The compound of example 51, at 30 mg/kg po, caused >50% inhibition of pS6RP at 2, 4 and 24 hours. Also, the compounds of examples 133, 146, 147, and 228, at 50 mg/kg po, each caused >50% inhibition of pS6RP at 3 and 8 hours.

[2] = 50 mg/kg po single dose, at 1, 4 and 24 hours

| Compound | pIC50 [1] | inhibition at 50 mg/kg (pS6RP in PC3 tumor; [2]) | inhibition at 50 mg/kg (pS6RP in PC3 tumor; 50 mg/kg po, at 3 and 8 hours) | inhibition at 30 mg/kg (pS6RP in PC3 tumor; 30 mg/kg po, at 2, 4 and 24 hours) |
| --- | --- | --- | --- | --- |
| CN(C)C(=O)c1ccc(NC(=O)Nc2ccc(-c3nc(N4CCOCC4)c4ccc(-c5cncnc5)cc4n3)cc2)cc1 [Example 1, N,N-Dimethyl-4-(3-{4-[4-morpholin-4-yl-7-pyrimidin-5-yl-quinazolin-2-yl)-phenyl]-ureido}-benzamide] | 6.30 to 7.00 | > 50% |  |  |
| CN(C)C(=O)c1ccc(NC(=O)Nc2ccc(-c3nc(N4CCOCC4)c4ccc(-c5cccnc5F)cc4n3)cc2)c(F)c1 [Example 146, 3-fluoro-4-(3-(4-(7-(2-fluoropyridin-3-yl)-4-morpholino-quinazolin-2-yl)phenyl)ureido)-N,N-dimethyl-benzamide] | > 7.00 |  | > 50% |  |
| CN(C)C(=O)c1ccc(NC(=O)Nc2ccc(-c3nc(N4CCOCC4)c4ccc(-c5ccco5)cc4n3)cc2)cc1 [Example 51, 4-{3-[4-(7-furan-2-yl-4-morpholin-4-yl-quinazolin-2-yl)-phenyl]-ureido}-N,N-dimethyl-benzamide] |  |  |  | > 50% |
| Cc1ccc(-c2ccc3c(N4CCOCC4)nc(-c4ccc(NC(=O)Nc5ccc(C(=O)N(C)C)cc5)cc4)nc3c2)o1 [Example 2, N,N-Dimethyl-4-(3-{4-[7-(5-methyl-furan-2-yl)-4-morpholin-4-yl-quinazolin-2-yl]-phenyl}-ureido)-benzamide] | 6.30 to 7.00 | > 50% |  |  |

Further lines, with some results ahead:

| pIC50 [1] | Compound | inhibition at 50 mg/kg (pS6RP in PC3 tumor; [2]) | inhibition at 50 mg/kg (pS6RP in PC3 tumor; 50 mg/kg po, at 3 and 8 hours) | inhibition at 30 mg/kg (pS6RP in PC3 tumor; 30 mg/kg po, at 2, 4 and 24 hours) |
| --- | --- | --- | --- | --- |
| 5.30 to 6.30 | CN(C)C(=O)c1ccc(NC(=O)Nc2ccc(-c3nc(N4CCOCC4)c4ccc(-c5cccnc5)cc4n3)cc2)c(F)c1 [Example 152, 3-fluoro-N,N-dimethyl-4-(3-(4-(4-morpholino-7-(pyridin-3-yl)quinazolin-2-yl)phenyl)ureido)-benzamide] |  |  |  |
| 5.30 to 6.30 | CN(C)C(=O)c1ccc(NC(=O)Nc2ccc(-c3nc(N4CCOCC4)c4ccc(-c5cncnc5)cc4n3)cc2)c(F)c1 [Example 133, 3-fluoro-N,N-dimethyl-4-(3-(4-(4-morpholino-7-(pyrimidin-5-yl)quinazolin-2-yl)phenyl)ureido)-benzamide] |  | > 50% |  |
